Data on two compounds can be found in patent EP3860599B1, “(+)-ALPHA-DIHYDROTETRABENAZINE DOSAGE REGIMEN FOR TREATING MOVEMENT DISORDERS” (Adeptio Pharmaceuticals Limited, priority 2018, dated 2020).

Molecules are shown by their SMILES. Where two headings read alike, the source gives them in different places.

For assay [1] the following is noted: cited from earlier work; for symptoms scored with the abnormal involuntary movement scale (AIMS): KINECT 1, tardive dyskinesia patients.
The subject of the next assay is amphetamine-induced rats. As to the kind of experiment: Open field locomotor activity test in amphetamine-induced rats (Example 2, Studies 1, 2 and 4). The class given is in vivo. As to conditions: 1 mg/kg. The protocol:
(§1) All animal experiments were carried out according to the National Institute of Health (NIH) guidelines for the care and use of laboratory animals, and approved by the National Animal Experiment Board, Finland. Male CD (Charles River Laboratories, Germany) at weight range of 200-250 g (165-200 g upon arrival) were used for the experiments. Animals were housed at a standard temperature (22 ± 1°C) and in a light-controlled environment (lights on from 7 am to 8 pm) with ad libitum access to food and water.
(§2) Locomotor activity of the rats was tested in open field arena. The open field test was performed during the rat light cycle and under a normal lighting evenly distributed to the test chambers. The paths of the rats were recorded by activity monitor (Med. Associates Inc.).
(§3) Dosing the vehicle, vehicle-amphetamine, (+)-α-DHTBZ or risperidone was done prior to LMA test. The rats were placed in the centre of the arena, and the path was recorded for 60 minutes.
Animals were grouped as follows: • Group 1: 10 rats treated with Vehicle (t= 0 min) and Vehicle (t= 30 min) • Group 2: 10 rats treated with Vehicle (t= 0 min) and Amphetamine (t= 30 min) • Group 3: 10 rats treated with (+)-α-DHTBZ 0.5 mg/kg (t=0 min) and Amphetamine (t= 30 min) • Group 4: 10 rats treated with (+)-α-DHTBZ 1 mg/kg (t=0 min) and Amphetamine (t= 30 min) • Group 5: 10 rats treated with (+)-α-DHTBZ 1.5 mg/kg (t=0 min) and Amphetamine (t= 30 min) • Group 6: 10 rats treated with (+)-α-DHTBZ 2 mg/kg (t=0 min) and Amphetamine (t= 30 min) • Group 7: 10 rats treated with risperidone 1 mg/kg (t=0 min) and Amphetamine (t= 30 min)
Animals were grouped as follows: • Group 1: 10 rats treated with Vehicle (t= 0 min) and Vehicle (t= 30 min) • Group 2: 10 rats treated with Vehicle (t= 0 min) and Amphetamine (t= 30 min) • Group 3: 10 rats treated with (+)-α-DHTBZ 0.1 mg/kg (t=0 min) and Amphetamine (t=30 min) • Group 4: 10 rats treated with (+)-α-DHTBZ 0.25 mg/kg (t=0 min) and Amphetamine (t=30 min) • Group 5: 10 rats treated with risperidone 1 mg/kg (t=0 min) and Amphetamine (t= 30 min)
Animals were grouped as follows: • Group 1: 10 rats treated with Vehicle (t= 0 min) and Vehicle (t= 30 min) • Group 2: 10 rats treated with Vehicle (t= 0 min) and Amphetamine (t= 30 min) • Group 3: 10 rats treated with (+)-α-DHTBZ 1 mg/kg (t=0 min) and Amphetamine (t=30 min) • Group 4: 10 rats treated with (+)-α-DHTBZ 1.5 mg/kg (t=0 min) and Amphetamine (t=30 min) • Group 5: 10 rats treated with Valbenazine 1 mg/kg (t=0 min) and Amphetamine (t=30 min) • Group 6: 10 rats treated with Valbenazine 1.5 mg/kg (t=0 min) and Amphetamine (t=30 min) • Group 7: 10 rats treated with risperidone 1 mg/kg (t=0 min) and Amphetamine (t= 30 min)

The subject of assay [2] is non-amphetamine induced rats. As to the kind of experiment: Open field locomotor activity test in rats without amphetamine induction (Example 2, Study 3). As to conditions: 1 mg/kg. It is filed as in vivo. As for the experimental part:
as §1, §2, §3
Animals were grouped as follows: • Group 1: 10 rats treated with Vehicle • Group 2: 10 rats treated with (+)-α-DHTBZ 2.5 mg/kg • Group 3: 10 rats treated with (+)-α-DHTBZ 5 mg/kg • Group 4: 10 rats treated with risperidone 1 mg/kg

`COc1cc2c(cc1OC)[C@H]1C[C@@H](OC(=O)[C@@H](N)C(C)C)[C@H](CC(C)C)CN1CC2` [Valbenazine, reference compound]: the “symptoms scored with the abnormal involuntary movement scale (AIMS)” value in assay [1] (50 mg/day) was “did not show any significant signs of improvement”; in assay [1] (100 mg/day), “some reduction of symptoms”. In assay [1] (KINECT 3, Tardive Dyskinesia sufferers, 80mg/day), the “Abnormal Involuntary Movement Score” value is reported as “significant improvement”.
`Cc1nc2n(c(=O)c1CCN1CCC(c3noc4cc(F)ccc34)CC1)CCCC2` [risperidone, reference compound]: in the assay with amphetamine-induced rats (Study 1 conclusions), the “locomotor activity when compared to the vehicle-amphetamine group” value is “lower locomotor activity” and the “stereotypic behaviour when compared to the vehicle-amphetamine group” value was “reduced stereotypic behaviour”. For the same compound, in the assay with amphetamine-induced rats (Study 2 conclusions), the “locomotor activity when compared to the vehicle-amphetamine group” value is listed as “lower locomotor activity” and the “stereotypic behaviour when compared to the vehicle-amphetamine group” value is “reduced stereotypic behaviour”. Moreover, in assay [2], the total movement entry is “reduced total movement” and the total stereotypic behaviour entry is on record as “reduced total stereotypic behaviour”.
